The text below walks through data of patent US11439709B2, “Phospholipid ether analogs as cancer-targeting drug vehicles” (Cellectar Biosciences, Inc., priority 2014, dated 2022).

Series [1] deals with Capan-2 (Pancreas). The series is described as follows: cells. The series is classed as cell-based. Particulars: cell viability. On the procedure:
(§1) The cell lines were then measured for cell viability and reported as IC50 for each treatment.

Series [2] has as its system HCT116 (Colorectal). The series is described as follows: cells. The series is classed as cell-based. As for the experimental part: as §1
In series [3] the test system is HT29 (Colorectal). As to the kind of experiment: cells. The series is classed as cell-based. On the procedure:
as §1

Series [4] relates to MDA-MB-468 (Breast). As to the kind of experiment: cells. Particulars: cell viability. In kind it is cell-based. As for the experimental part:
as §1

Series [5] concerns MiaPaCa-1 (Pancreas). As to the kind of experiment: cells. In kind it is cell-based. Particulars: cell viability. As for the experimental part:
as §1

Series [6] relates to NCI-H1299 (Lung). The series is described as follows: cells. The series is classed as cell-based. Particulars: NCI-HI1299 (Lung), cell viability. On the procedure: as §1
The test system of series [7] is NCI-H460 (Lung). As to the kind of experiment: cells. In kind it is cell-based. Particulars: cell viability. On the procedure: as §1
Series [8] concerns PC-3 (Prostate). As to the kind of experiment: cells. In kind it is cell-based. Particulars: cell viability. On the procedure:
as §1

The test system of series [9] is MDA-MB-468 cells. As to the kind of experiment: Annexin V / PI flow cytometry, MDA-MB-468 cells. On the procedure:
(§2) Annexin V and PI ([…]) staining by flow cytometry was utilized to determine percentages of live, early apoptotic, late apoptotic, and necrotic cells. In short, cells were treated with cytotoxic agents and stained with an Annexin V/P1 labeling kit (Life Technologies). Cells were analyzed on an LSRII flow cytometer (BD Biosciences). As shown in Tables 3-9, cells were classified as: Live (Annexin V negative, PI negative), Early apoptotic (Annexin V positive, PI negative), Late apoptotic (Annexin V positive, PI positive), and Necrotic. (Annexin V negative, PI positive). […] Annexin V (attached to AlexaFluor 488) is shown on the x-axis, while PI is shown on the y-axis. The lower left quadrant indicates live cells, the upper left quadrant indicates necrotic cells, the upper right quadrant indicates late apoptotic cells and the lower right quadrant indicates early apoptotic cells. Debris was eliminated from this analysis.

For series [10], the system named is COLO 829 cells. The series is described as follows: Annexin V / PI flow cytometry, COLO 829 cells. The series is classed as cell-based. On the procedure:
as §2
(Flow cytometry measures light scatter and fluorescence of single cells or particles in a stream.)

The test system of series [11] is PANC-1 cells. As to the kind of experiment: Annexin V / PI flow cytometry, PANC-1 cells. In kind it is cell-based. Particulars: GEL for 48 hours. On the procedure:
as §2

Series [12] deals with 22RV1 cells. The series is described as follows: Annexin V / PI flow cytometry, 22RV1 cells. The series is classed as cell-based. Particulars: GEL for 48 hours. On the procedure: as §2
In series [13] the test system is MDA-MB-468, NCI-H1299, NCI-H460, Capan-2, MiaPaCa-1, HT29, HCT116 and PC-3 cancer cell lines. As to the kind of experiment: Cell viability of the cancer cell line panel (result in words). The series is classed as cell-based. Particulars: eight cancer cell lines, serial concentrations. As for the experimental part:
as §1

Where [14] appears, read: 100 nM, PTX for 24 hours, Table 3 titled 72 Hours.
Setting [15] is: 1 uM, PTX for 24 hours, Table 3 titled 72 Hours.
Where [16] appears, read: 1 uM, GEL for 48 hours, Table 4 titled 72 Hours.
The mark [17] stands for this setting: 100 nM, GEL for 48 hours, Table 5.
The mark [18] stands for this setting: 1 uM, GEL for 48 hours, Table 5.

Molecules are shown by their SMILES.

Broadly, the IC50 is the midpoint of a concentration-inhibition curve.

For the molecule `CC(=O)O[C@H]1C(=O)[C@@]2(C)[C@H]([C@H](OC(=O)c3ccccc3)[C@]3(O)C[C@H](OC(=O)[C@H](O)[C@@H](NC(=O)c4ccccc4)c4ccccc4)C(C)=C1C3(C)C)[C@]1(OC(C)=O)CO[C@@H]1C[C@@H]2O` [Paclitaxel, paclitaxel], the IC50 in series [1] (Homo sapiens) amounted to 7.91 nM; in series [2] (Homo sapiens, HCT-116, cell viability), 0.87 nM; in series [3] (Homo sapiens, HT-29, cell viability), 1.07 nM; in series [4] (Homo sapiens), 1.9 nM; in series [5], 1.32 nM; in series [6] (Homo sapiens, NCI-H1299), 1.82 nM. In addition, the figures for the IC50 in series [7] (Homo sapiens) and in [8] were 1.66 nM and 0.9 nM, respectively. In addition, the “Early Apoptotic” value in [9] (100 nM, 48 hrs (Table 8)) is recorded as 2.47 % of total cells; in series [9] (setting [14]), 5.9 % of total cells; in series [9] (1 uM, 48 hrs (Table 8)), 1.97 % of total cells; in [9] (setting [15]), 5.5 % of total cells. Also, the “Late Apoptotic” value in [9] (100 nM, 48 hrs (Table 8)) is reported as 5.54 % of total cells; in series [9] (setting [14]), 31.4 % of total cells; in series [9] (1 uM, 48 hrs (Table 8)) it was 9.18 % of total cells; in [9] (setting [15]), 34.8 % of total cells. The “Live (cell viability)” value in series [9] (100 nM, 48 hrs (Table 8)) is given as 77.9 % of total cells; in series [9] (setting [14]), 53.8 % of total cells; in series [9] (1 uM, 48 hrs (Table 8)) it was 73.3 % of total cells; in [9] (setting [15]) it was 48.9 % of total cells. In addition, the Necrotic in series [9] (100 nM, 48 hrs (Table 8)) was 14.1 % of total cells; in series [9] (setting [14]), 8.89 % of total cells; in series [9] (1 uM, 48 hrs (Table 8)), 15.6 % of total cells; in [9] (setting [15]), 10.8 % of total cells.

Turning to `COC1=C2C[C@@H](C)C[C@H](OC)[C@H](O)[C@@H](C)/C=C(\C)[C@H](OC(N)=O)[C@@H](OC)/C=C\C=C(/C)C(=O)NC(=CC1=O)C2=O` [GEL, geldanamycin], the “Early Apoptotic” value was 19.6 % of total cells in series [9] (setting [16]); 12.2 % of total cells in [10] (100 nM, 48 hrs (Table 9)); 21.9 % of total cells in series [10] (setting [17]); 14.4 % of total cells in [10] (1 uM, 48 hrs (Table 9)); 21.4 % of total cells in [10] (setting [18]); 4.68 % of total cells in series [11] (100 nM). Also, the “Early Apoptotic” value in series [11] (1 uM) is 1.93 % of total cells; in series [12] (100 nM), 5.09 % of total cells; in series [12] (1 uM), 6.22 % of total cells. Also, the “Late Apoptotic” value is on record as 37.9 % of total cells in series [9] (setting [16]); 29 % of total cells in series [10] (100 nM, 48 hrs (Table 9)); 40.8 % of total cells in series [10] (setting [17]); 38.3 % of total cells in [10] (1 uM, 48 hrs (Table 9)); 53.7 % of total cells in series [10] (setting [18]); 12.6 % of total cells in series [11] (100 nM). Besides, the “Late Apoptotic” value is given as 12.8 % of total cells in series [11] (1 uM), 28.4 % of total cells in series [12] (100 nM) and 19.1 % of total cells in series [12] (1 uM). Further, the “Live (cell viability)” value in series [9] (setting [16]) was 26.2 % of total cells; in series [10] (100 nM, 48 hrs (Table 9)), 36.1 % of total cells; in [10] (setting [17]), 32.4 % of total cells; in series [10] (1 uM, 48 hrs (Table 9)) it was 24.6 % of total cells; in [10] (setting [18]), 18.6 % of total cells; in [11] (100 nM) it was 23.3 % of total cells. For the same molecule, the entries for the “Live (cell viability)” value in series [11] (1 uM), in series [12] (100 nM) and in [12] (1 uM) were 18.9 % of total cells, 19.4 % of total cells and 28.1 % of total cells, respectively. In addition, the Necrotic was 16.3 % of total cells in series [9] (setting [16]); 22.7 % of total cells in series [10] (100 nM, 48 hrs (Table 9)); 4.9 % of total cells in [10] (setting [17]); 22.7 % of total cells in series [10] (1 uM, 48 hrs (Table 9)); 6.42 % of total cells in [10] (setting [18]); 59.4 % of total cells in [11] (100 nM). Moreover, the Necrotic in series [11] (1 uM) is 66.4 % of total cells; in series [12] (100 nM), 47.1 % of total cells; in series [12] (1 uM), 46.6 % of total cells.

On to `CC(=O)O[C@H]1C(=O)[C@@]2(C)[C@H]([C@H](OC(=O)c3ccccc3)[C@]3(O)C[C@H](OC(=O)[C@H](OC(=O)CCCC(=O)Nc4ccc(CCCCCCCCCCCCCCCCCCOP(=O)([O-])OCC[N+](C)(C)C)cc4)[C@@H](NC(=O)c4ccccc4)c4ccccc4)C(C)=C1C3(C)C)[C@]1(OC(C)=O)CO[C@@H]1C[C@@H]2O` [CLR1601], for which the IC50 in series [1] was 56.7 nM; in series [2] (cell viability), 7.6 nM; in series [3] (cell viability), 92.2 nM; in series [4], 3.77 nM; in series [5] it was 37.3 nM; in [6] it was 60.3 nM. The IC50 in series [7] worked out at 29.5 nM; in series [8], 34.4 nM. Moreover, the “reduction of cancer cell line viability” value in series [13] is “capable of reducing cell viability”. Also, the “Early Apoptotic” value in series [9] (1 uM, 48 hrs (Table 8)) is 1.49 % of total cells; in series [9] (1 uM, 72 hrs), 9.8 % of total cells; in series [9] (5 uM, 72 hrs), 2.71 % of total cells. Moreover, the “Late Apoptotic” value in series [9] (1 uM, 48 hrs (Table 8)) is 6 % of total cells; in [9] (1 uM, 72 hrs) it was 57.5 % of total cells; in [9] (5 uM, 72 hrs), 57.9 % of total cells. Moreover, the “Live (cell viability)” value in series [9] (1 uM, 48 hrs (Table 8)) is on record as 79.4 % of total cells; in [9] (1 uM, 72 hrs) it was 17 % of total cells; in series [9] (5 uM, 72 hrs) it was 17.8 % of total cells. Also, the Necrotic in series [9] (1 uM, 48 hrs (Table 8)) is on record as 13.1 % of total cells; in [9] (1 uM, 72 hrs), 15.8 % of total cells; in series [9] (5 uM, 72 hrs), 21.6 % of total cells.

Take `CC(=O)O[C@H]1C(=O)[C@@]2(C)[C@H]([C@H](OC(=O)c3ccccc3)[C@]3(O)C[C@H](OC(=O)[C@H](OC(=O)OCCCCC(=O)Nc4ccc(CCCCCCCCCCCCCCCCCCOP(=O)([O-])OCC[N+](C)(C)C)cc4)[C@@H](NC(=O)c4ccccc4)c4ccccc4)C(C)=C1C3(C)C)[C@]1(OC(C)=O)CO[C@@H]1C[C@@H]2O` [CLR1603]: in [13], the “reduction of cancer cell line viability” value is reported as “capable of reducing cell viability”. Also, in series [9] (1 uM, 48 hrs (Table 8)), the “Early Apoptotic” value is 1.4 % of total cells, the “Late Apoptotic” value was 4.78 % of total cells, the “Live (cell viability)” value is listed as 81.4 % of total cells and the Necrotic is 12.4 % of total cells. Moreover, in [9] (1 uM, 72 hrs), the “Early Apoptotic” value was 6.74 % of total cells, the “Late Apoptotic” value is given as 49.1 % of total cells, the “Live (cell viability)” value was 22.2 % of total cells and the Necrotic is recorded as 22 % of total cells. Besides, in series [9] (5 uM, 72 hrs), the “Early Apoptotic” value is recorded as 2.65 % of total cells, the “Late Apoptotic” value is reported as 55.2 % of total cells, the “Live (cell viability)” value was 19.7 % of total cells and the Necrotic is reported as 22.5 % of total cells.

Take `CC(=O)O[C@H]1C(=O)[C@]2(C)[C@@H](OC(=O)NCCCC(=O)Nc3ccc(CCCCCCCCCCCCCCCCCCOP(=O)([O-])OCC[N+](C)(C)C)cc3)C[C@H]3OC[C@@]3(OC(C)=O)[C@H]2[C@H](OC(=O)c2ccccc2)[C@]2(O)C[C@H](OC(=O)[C@H](O)[C@@H](NC(=O)c3ccccc3)c3ccccc3)C(C)=C1C2(C)C` [CLR1602]: in [13], the “reduction of cancer cell line viability” value was “not capable of significantly reducing cancer cell line viability”.
